The results in this text go back to patent US7585895B2, “Therapeutic substituted cyclopentanes” (Allergan, Inc., priority 2005, dated 2009).

As usually defined, the EC50 is the midpoint of the concentration-response curve.

Common to all, as to format: cell-based
One assay has as its target T1, hFP (Homo sapiens, UniProt P43088).
T1 construct: expressed in transfected cells
Nature of the assay: FLIPR calcium signal, FP. The conditions noted are these: HEK-293(EBNA). As for the experimental part:
(§1) HEK-293(EBNA) cells, stably expressing one type or subtype of recombinant human prostaglandin receptors (prostaglandin receptors expressed: hDP/Gqs5; hEP1; hEP2/Gqs5; hEP3A/Gqi5; hEP4/Gqs5; hFP; hIP; hTP), were cultured in 100 mm culture dishes in high-glucose DMEM medium containing 10% fetal bovine serum, 2 mM 1-glutamine, 250 μg/ml geneticin (G418) and 200 μg/ml hygromycin B as selection markers, and 100 units/ml penicillin G, 100 μg/ml streptomycin and 0.25 μg/ml amphotericin B.
(§2) Cells were seeded at a density of 5×10^4 cells per well in Biocoat® Poly-D-lysine-coated black-wall, clear-bottom 96-well plates (Becton-Dickinson) and allowed to attach overnight in an incubator at 37° C. Cells were then washed two times with HBSS-HEPES buffer (Hanks Balanced Salt Solution without bicarbonate and phenol red, 20 mM HEPES, pH 7.4) using a Denley Cellwash plate washer (Labsystems). After 45 minutes of dye-loading in the dark, using the calcium-sensitive dye Fluo-4 AM at a final concentration of 2 μM, plates were washed four times with HBSS-HEPES buffer to remove excess dye leaving 100 μl in each well. Plates were re-equilibrated to 37° C. for a few minutes.
(§3) Cells were excited with an Argon laser at 488 nm, and emission was measured through a 510-570 nm bandwidth emission filter (FLIPR™, Molecular Devices, Sunnyvale, Calif.). Drug solution was added in a 50 μl volume to each well to give the desired final concentration. The peak increase in fluorescence intensity was recorded for each well. On each plate, four wells each served as negative (HBSS-HEPES buffer) and positive controls (standard agonists: BW245C (hDP); PGE2 (HEP1; hEP2/Gqs5; hEP3A/Gqi5; hEP4/Gqs5); PGF2α (hFP); carbacyclin (hIP); U-46619 (hTP), depending on receptor). The peak fluorescence change in each drug-containing well was then expressed relative to the controls.
(§4) Compounds were tested in a high-throughput (HTS) or concentration-response (CoRe) format. In the HTS format, forty-four compounds per plate were examined in duplicates at a concentration of 10^−5 M. To generate concentration-response curves, four compounds per plate were tested in duplicates in a concentration range between 10^−5 and 10^−11 M. The duplicate values were averaged. In either, HTS or CoRe format each compound was tested on at least 3 separate plates using cells from different passages to give an n≧3.

A further assay deals with T2, hEP3A/Gqi5 (Homo sapiens, UniProt P43115).
T2 construct: expressed in transfected cells
T2 sequence (P43115 1-390): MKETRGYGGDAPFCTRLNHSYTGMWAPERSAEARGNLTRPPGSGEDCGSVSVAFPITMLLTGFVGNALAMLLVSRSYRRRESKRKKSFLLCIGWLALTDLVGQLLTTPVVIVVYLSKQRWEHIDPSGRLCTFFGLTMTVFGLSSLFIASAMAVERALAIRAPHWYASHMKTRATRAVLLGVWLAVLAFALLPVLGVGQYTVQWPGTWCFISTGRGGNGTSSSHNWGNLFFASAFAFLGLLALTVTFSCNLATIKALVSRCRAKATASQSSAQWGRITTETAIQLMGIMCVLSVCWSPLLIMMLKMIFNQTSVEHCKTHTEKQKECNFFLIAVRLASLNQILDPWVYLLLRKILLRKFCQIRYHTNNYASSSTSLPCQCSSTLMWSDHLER
Nature of the assay: FLIPR calcium signal, EP3. The conditions noted are these: HEK-293(EBNA); for EC50: read-out: Ca2+ Signal-EC50 (nM) EP3. As for the experimental part:
as §1, §2, §3, §4

A further assay addresses T3, hTP (Homo sapiens, UniProt P21731).
T3 construct: expressed in transfected cells
T3 sequence (P21731 1-343): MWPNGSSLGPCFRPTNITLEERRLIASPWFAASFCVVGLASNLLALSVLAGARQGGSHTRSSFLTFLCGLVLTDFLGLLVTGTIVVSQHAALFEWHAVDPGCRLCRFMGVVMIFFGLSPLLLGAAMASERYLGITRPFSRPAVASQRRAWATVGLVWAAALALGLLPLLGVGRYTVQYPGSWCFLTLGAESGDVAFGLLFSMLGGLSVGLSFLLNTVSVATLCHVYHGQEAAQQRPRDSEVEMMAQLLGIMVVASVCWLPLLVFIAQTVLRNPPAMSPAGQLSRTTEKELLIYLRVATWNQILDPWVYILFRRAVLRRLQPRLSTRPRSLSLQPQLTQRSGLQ
Put plainly: FLIPR calcium signal, TP. The conditions noted are these: HEK-293(EBNA); for EC50: read-out: Ca2+ Signal-EC50 (nM) TP. On the procedure: as §1, §2, §3, §4

In the next assay the target is EP2 (Homo sapiens, UniProt P43116). Nature of the assay: cAMP assay, HEK-EBNA cells expressing EP2. Also noted: expressed in transfected cells; host or cells: HEK-EBNA. The conditions noted are these: value in parentheses in EP2 column, read-out: EP2 EC50 (nM), measurement of cAMP (data in parentheses). As for the experimental part: A 384-well drug plate was prepared to contain 6 test compounds, PGE2 and cAMP in 16 serial dilutions in triplicate, using a Biomek station. HEK-EBNA cells expressing a target PG receptor subtype (EP2 or EP4) were suspended in a stimulation buffer (HBSS, 0.1% BSA, 0.5 mM IBMX and 5 mM HEPES, pH 7.4) in a density of 10^4 cells/5 μl. The reaction was initiated by mixing 5 μL drug dilutions with 5 μl of HEK-EBNA cells in a well, carried out for 30 min at room temperature, and followed by the addition of 5 μl anti-cAMP acceptor beads in the control buffer with Tween-20 (25 mM NaCl, 0.03% Tween-20, 5 mM HEPES, pH7.4). After 30 min in the dark at room temperature, the mixtures were incubated with 15 μl biotinylated-cAMP/strepavidin donor beads in Lysis/Detection buffer (0.1% BSA, 0.3% Tween-20 and 5 mM HEPES, pH7.4) for 45 min at the room temperature. Fluorescence changes were read using a Fusion-alpha HT microplate reader.
In general terms: Cyclic AMP is a second messenger, typically raised through Gs and lowered through Gi signalling.

The structures appear in SMILES notation.

Sequence of EP2 (P43116 whole entry): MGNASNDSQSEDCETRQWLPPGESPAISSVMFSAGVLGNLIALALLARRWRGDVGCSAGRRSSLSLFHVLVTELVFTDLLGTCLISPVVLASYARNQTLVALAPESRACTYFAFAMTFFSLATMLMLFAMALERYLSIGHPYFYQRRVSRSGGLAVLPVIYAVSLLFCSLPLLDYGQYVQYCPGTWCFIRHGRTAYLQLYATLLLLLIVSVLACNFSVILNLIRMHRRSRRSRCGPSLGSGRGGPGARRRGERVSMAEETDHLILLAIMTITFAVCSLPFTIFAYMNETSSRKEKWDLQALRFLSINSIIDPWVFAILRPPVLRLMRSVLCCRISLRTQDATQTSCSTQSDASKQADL
T1 sequence (P43088 whole entry): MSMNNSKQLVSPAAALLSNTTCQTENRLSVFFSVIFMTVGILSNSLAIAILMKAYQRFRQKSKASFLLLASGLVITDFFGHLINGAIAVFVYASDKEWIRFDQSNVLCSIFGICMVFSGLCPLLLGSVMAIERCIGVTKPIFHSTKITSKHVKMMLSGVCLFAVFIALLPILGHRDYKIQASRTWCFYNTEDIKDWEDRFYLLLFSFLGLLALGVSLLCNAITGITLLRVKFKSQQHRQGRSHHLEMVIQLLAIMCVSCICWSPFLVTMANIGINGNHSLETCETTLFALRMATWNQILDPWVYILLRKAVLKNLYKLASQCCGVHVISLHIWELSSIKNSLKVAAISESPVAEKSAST

In the case of `CCCCCC(O)c1ccc([C@@H]2[C@@H](C/C=C\CCCC(=O)O)[C@@H](Cl)C[C@H]2O)cc1` (stereo partly drawn) [Entry 9, (Z)-7-{(1R,2S,3R,5S)-5-Chloro-3-hydroxy-2-[4-(1-hydroxy-hexyl)-phenyl]-cyclopentyl}-hept-5-enoic acid], the “Ca2+ Signal-EC50 (nM) FP” value on hFP is given as “not active”. The EC50 at hEP3A/Gqi5 stood at 7230 nM; at EP2, 324 nM. Besides, at hTP, the “Ca2+ Signal-EC50 (nM) TP” value is on record as “not active”.

For the compound `CC(C)(C)CCCC(O)c1ccc([C@@H]2[C@@H](CCCCCCC(=O)O)[C@H](Cl)C[C@H]2O)cc1` (mixture of isomers) [Entry 20, 7-{(1R,2S,3R,5R)-5-Chloro-3-hydroxy-2-[4-(1-hydroxy-5,5-dimethyl-hexyl)-phenyl]-cyclopentyl}-heptanoic acid], at hFP, the “Ca2+ Signal-EC50 (nM) FP” value was “not active”. In addition, the half-maximal effective concentration (EC50) at hEP3A/Gqi5 is 4450 nM; at EP2, above 10000 nM. Further, the “Ca2+ Signal-EC50 (nM) TP” value on hTP is “not active”.

For `O=C(O)CCCCCC[C@@H]1[C@@H](c2ccc(C(O)CCc3ccccc3)cc2)[C@H](O)C[C@H]1Cl` (stereo partly drawn) [Entry 24, 7-{(1R,2S,3R,5R)-5-Chloro-3-hydroxy-2-[4-(1-hydroxy-3-phenyl-propyl)-phenyl]-cyclopentyl}-heptanoic acid], on hFP, the “Ca2+ Signal-EC50 (nM) FP” value is “not active”. Further, the figures for the EC50 on hEP3A/Gqi5 and at EP2 were 8830 nM and 628 nM, respectively. At hTP, the “Ca2+ Signal-EC50 (nM) TP” value was “not active”.

As for `CCCCC(O)C(C)(C)c1ccc([C@@H]2[C@@H](C/C=C\CCCC(=O)O)[C@H](Cl)C[C@H]2O)cc1` (mixture of isomers) [Entry 32, (Z)-7-{(1R,2S,3R,5R)-5-Chloro-3-hydroxy-2-[4-(2-hydroxy-1,1-dimethyl-hexyl)-phenyl]-cyclopentyl}-hept-5-enoic acid], on hFP, the “Ca2+ Signal-EC50 (nM) FP” value is “not active”. The values for the 50% effective concentration (EC50) at hEP3A/Gqi5 and at EP2 were 2810 nM and 9 nM, respectively. Moreover, the “Ca2+ Signal-EC50 (nM) TP” value on hTP was “not active”.

Take `CCCCCC(O)c1ccc([C@@H]2[C@@H](C/C=C\CCCC(=O)O)[C@H](Cl)C[C@H]2O)cc1` (single isomer, unassigned) [Entry 13]: at hFP, the “Ca2+ Signal-EC50 (nM) FP” value is “not active”. Also, the EC50 at hEP3A/Gqi5 is 3000 nM; on EP2, 3 nM. For the same compound, the “Ca2+ Signal-EC50 (nM) TP” value at hTP was “not active”.

Consider `O=C(O)CCCCCC[C@@H]1[C@@H](c2ccc(C(O)CCC3CCCCC3)cc2)[C@H](O)C[C@H]1Cl` (stereo partly drawn) [Entry 16, 7-{(1R,2S,3R,5R)-5-Chloro-2-[4-(3-cyclohexyl-1-hydroxy-propyl)-phenyl]-3-hydroxy-cyclopentyl}-heptanoic acid], for which, on hFP, the “Ca2+ Signal-EC50 (nM) FP” value is “not active”. The EC50 at hEP3A/Gqi5 came out at 1710 nM; at EP2 it was 5260 nM. The “Ca2+ Signal-EC50 (nM) TP” value on hTP is “not active”.

For the compound `CCCCCC(O)c1ccc([C@@H]2[C@@H](CCCc3ccc(C(=O)O)s3)[C@H](Cl)C[C@H]2O)cc1` (stereo partly drawn) [Entry 2, 5-(3-{(1R,2S,3R,5R)-5-Chloro-3-hydroxy-2-[4-(1-hydroxy-hexyl)-phenyl]-cyclopentyl}-propyl)-thiophene-2-carboxylic acid], on hFP, the “Ca2+ Signal-EC50 (nM) FP” value is “not active”. For the same compound, the EC50 at hEP3A/Gqi5 turned out to be 348 nM; at EP2, 2 nM. In addition, on hTP, the “Ca2+ Signal-EC50 (nM) TP” value is “not active”.

`O=C(O)CCC/C=C\C[C@@H]1[C@@H](c2ccc(C(O)c3ccccc3)cc2)[C@H](O)C[C@H]1Cl` (stereo partly drawn) [Entry 28, (Z)-7-{(1R,2S,3R,5R)-5-Chloro-3-hydroxy-2-[4-(hydroxy-phenyl-methyl)-phenyl]-cyclopentyl}-hept-5-enoic acid]: the “Ca2+ Signal-EC50 (nM) FP” value at hFP is “not active”. Besides, the “Ca2+ Signal-EC50 (nM) EP3” value on hEP3A/Gqi5 is “not active”. Further, on hTP, the “Ca2+ Signal-EC50 (nM) TP” value is “not active”. Further, at EP2, the EC50 was 9 nM.

Turning to `CCCCC(O)c1cccc([C@@H]2[C@@H](C/C=C\CCCC(=O)O)[C@H](Cl)C[C@H]2O)c1` (stereo partly drawn) [Entry 30, (Z)-7-{(1R,2S,3R,5R)-5-Chloro-3-hydroxy-2-[3-(1-hydroxy-pentyl)-phenyl]-cyclopentyl}-hept-5-enoic acid], the “Ca2+ Signal-EC50 (nM) FP” value at hFP is listed as “not active”. Moreover, the figures for the EC50 at hEP3A/Gqi5, on hTP and on EP2 were 23 nM, 3750 nM and 10 nM, respectively.

On to `CCCCCC(O)c1ccc([C@@H]2[C@@H](C/C=C\CCCC(=O)O)[C@H](Cl)C[C@@H]2O)cc1` (stereo partly drawn) [Entry 34, (Z)-7-{(1R,2S,3S,5R)-5-Chloro-3-hydroxy-2-[4-(1-hydroxy-hexyl)-phenyl]-cyclopentyl}-hept-5-enoic acid], for which the “Ca2+ Signal-EC50 (nM) FP” value on hFP is “not active”. The EC50 on hEP3A/Gqi5 was found to be 25 nM; at hTP it was 6930 nM; at EP2, 5 nM.

In the case of `CCCC1(C(O)c2cccc([C@@H]3[C@@H](Cc4cccc(CCC(=O)O)c4)[C@H](Cl)C[C@H]3O)c2)CCC1` (stereo partly drawn) [Entry 4, 3-[3-((1R,2S,3R,5R)-5-Chloro-3-hydroxy-2-{3-[hydroxy-(1-propyl-cyclobutyl)-methyl]-phenyl}-cyclopentylmethyl)-phenyl]-propionic acid], the “Ca2+ Signal-EC50 (nM) FP” value at hFP is recorded as “not active”. Also, the “Ca2+ Signal-EC50 (nM) EP3” value on hEP3A/Gqi5 was “not active”. Moreover, the “Ca2+ Signal-EC50 (nM) TP” value on hTP is “not active”. For the same compound, the concentration for a half-maximal effect (EC50) on EP2 worked out at 69 nM.

Consider `O=C(O)CCC/C=C\C[C@@H]1[C@@H](c2ccc(C(O)Cc3ccccc3)cc2)[C@H](O)C[C@H]1Cl` (mixture of isomers) [Entry 21, (Z)-7-{(1R,2S,3R,5R)-5-Chloro-3-hydroxy-2-[4-(1-hydroxy-2-phenyl-ethyl)-phenyl]-cyclopentyl}-hept-5-enoic acid], for which, on hFP, the “Ca2+ Signal-EC50 (nM) FP” value is “not active”. The “Ca2+ Signal-EC50 (nM) EP3” value on hEP3A/Gqi5 is given as “not active”. For the same compound, on hTP, the “Ca2+ Signal-EC50 (nM) TP” value is given as “not active”. For the same compound, at EP2, the EC50 worked out at 14 nM.

`CCCCCCC(O)c1ccc([C@@H]2[C@@H](C/C=C\CCCC(=O)O)[C@H](Cl)C[C@H]2O)cc1` (stereo partly drawn) [Entry 25, (Z)-7-{(1R,2S,3R,5R)-5-Chloro-3-hydroxy-2-[4-(1-hydroxy-heptyl)-phenyl]-cyclopentyl}-hept-5-enoic acid]: on hFP, the “Ca2+ Signal-EC50 (nM) FP” value is “not active”. In addition, the EC50 on hEP3A/Gqi5 was found to be 5930 nM; at EP2, 12 nM. The “Ca2+ Signal-EC50 (nM) TP” value on hTP is given as “not active”.
